System: 186277-243-T-J2-PDC complex spheroid viability
Test: Anticancer human tumor 186277-243-T-J2-PDC patient-derived colon adenocarcinoma cell line growth inhibition
Conditions: for IC50: curve of first compound; for viability, T/C: stronger effect = lower value
From the text: Multicellular complex tumor spheroid response to LSD1 Inhibitor Iadademstat in combination with a variety of drugs and investigational agents in selected tumor cell lines
The current study was undertaken to assess response to LSD1 inhibitors in combination with standard-of-care drugs and investigational agents in solid tumor complex spheroid models as well as in the K-562 leukemia. Complex spheroids include a stromal component modeled by human endothelial cells (HUVEC) and fibroblasts modeled by human mesenchymal stem cells (MSCs). The concentration ranges selected for each drug and investigational agent were based upon clinically achievable concentrations if the clinical Cmax of the agent was known.
Compounds. The drugs and investigational agents used in this study are listed on Table 1. All of the agents used, including staurosporine (NSC755774) and gemcitabine (NSC613327), were obtained from the Developmental Therapeutics Program, NCI. FDA-approved anticancer drugs are available from the NCI at http://dtp.nci.nih.gov/branches/dscb/oncology_drugset_explanation.html. Drugs and investigational agents were >95% pure by proton nuclear magnetic resonance (NMR) and liquid chromatography/mass spectrometry (LC/MS). Stock solutions were prepared at 400x in DMSO, stored at -70 degrees C, and diluted in fresh medium prior to their use. The final concentration of DMSO in cell culture wells never exceeded 0.25% (v/v). The FDA-approved anticancer drug set is available from the Developmental Therapeutics Program at https://dtp.cancer.gov/organization/dscb/obtaining/available_plates.htm. All drugs and investigational agents were tested over a range starting from a high concentration at or near the clinical Cmax and decreasing in half-log increments. If the clinical Cmax for an agent had not been determined, the highest concentration tested was 10 microM.
Cell Lines. The patient-derived cancer cell (PDC) lines: 292921-168-R-J2-PDC, K24384-001-R-PDC, and 521955-158-R2-J5-PDC pancreatic carcinomas, 556581-035-R-J1 ovarian carcinoma, 324938-238-R-J1-PDC, 855422-203-R-J1-PDC and 883617-216-R-J1-PDC urothelial bladder carcinomas, 743489-274-T-PDC renal cell carcinoma, 138582-R-J1 Merkel cell tumor, K60290-347-R-J1 and K57222-313-R-J1-PDC glioblastomas, 653999-131-R-J2-PDC, LG0703-F948-PDC, and 349418-098-R-PDC non-small cell lung carcinomas, 885512-296-R-J2-PDC, 171881-019-R-J1-PDC breast carcinomas and 186277-243-T-J2-PDC and 233499-124-R-J2-PDC colon carcinomas were obtained from the NCI Patient-Derived Models Repository (PDMR, https://pdmr.cancer.gov). The established cell lines NCI/ADR-RES (RRID:CVCL_14520 and OVCAR-5 (RRID:CVCL_1628) ovarian carcinomas, 786-O (RRID:CVCL_1051) and A498 (RRID:CVCL_A498) renal cell carcinoma, NCI-H211 (ATCC, cat. CRL-5824; RRID:CVCL_1529), NCI-H196 (ATCC, cat. CRL-5823, RRID:CVCL_1509), SW 1271 (ATCC, cat. CRL-2177, RRID:CVCL_1716) and NCI-H1876 (ATCC, cat. CRL-5902, RRID:CVCL_1503) small cell lung carcinomas, MDA-MB-231 (RRID:CVCL_0062) and MDA-MB-468 (RRID:CVCL_0419)breast carcinomas (10-12). Pooled donor human umbilical vein endothelial cells (HUVEC, Lonza, cat. CC-2519) and human mesenchymal stem cells (hMSC, Lonza, cat. PT-2501) were purchased from Lonza (Walkersville, MD).
Cell Culture. All cells were maintained in an incubator at 37 degrees C and 5% CO2 with 95% humidity. The PDC lines were cultured according to standard operating procedures established by the NCI PDMR (https://pdmr.cancer.gov). Briefly all PDCs were thawed and cultured in Matrigel-coated flasks prepared with a working solution of 1X Ham's F-12 nutrient mix, without supplementation (Invitrogen, Waltham, MA, cat. 11765054), 100 U/mL penicillin-streptomycin (Invitrogen, cat. 15140122), and 2.5% Matrigel (Corning Inc., Corning, NY, cat. 354248) for the first three passages. […]

[1] = second compound 0.1 µM, first compound 0.0316 µM
[2] = second compound 0.1 µM, first compound 0.1 µM
[3] = second compound 0.316 µM, first compound 0.0316 µM
[4] = second compound 0.316 µM, first compound 0.1 µM
[5] = second compound 1 µM, first compound 0.0316 µM
[6] = second compound 1 µM, first compound 0.1 µM
[7] = second compound 3.16 µM, first compound 0.0316 µM
[8] = second compound 3.16 µM, first compound 0.1 µM
[9] = second compound 10 µM, first compound 0.0316 µM
[10] = second compound 10 µM, first compound 0.1 µM
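Note: 7 day exposure to compounds.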
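Throughout, for viability, T/C: 100% = DMSO vehicle control viability.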

What does the source list for `CC1COCCN1c1cc(C2(S(C)(=N)=O)CC2)nc(-c2ccnc3[nH]ccc23)n1` (stereo not given) + NC1CCC(NC2CC2c2ccccc2)CC1?
IC50 (second compound 0.1 µM): 438 nM; IC50 (second compound 0.316 µM): 457 nM; IC50 (second compound 1 µM): 440 nM; IC50 (second compound 3.16 µM): 517 nM; IC50 (second compound 10 µM): 533 nM; viability, T/C [1]: 123%; viability, T/C [2]: 108%; viability, T/C (second compound 0.1 µM, first compound 0.316 µM): 63%; viability, T/C (second compound 0.1 µM, first compound 1 µM): 17.9%; viability, T/C (second compound 0.1 µM, first compound 3.16 µM): 10.8%; viability, T/C (second compound 0.1 µM, first compound 10 µM): 6.11%; viability, T/C [3]: 117%; viability, T/C [4]: 115%; viability, T/C (second compound 0.316 µM, first compound 0.316 µM): 65.1%; viability, T/C (second compound 0.316 µM, first compound 1 µM): 17.7%; viability, T/C (second compound 0.316 µM, first compound 3.16 µM): 11%; viability, T/C (second compound 0.316 µM, first compound 10 µM): 7.27%; viability, T/C [5]: 118%; viability, T/C [6]: 112%; viability, T/C (second compound 1 µM, first compound 0.316 µM): 62.8%; viability, T/C (second compound 1 µM, first compound 1 µM): 17.5%; viability, T/C (second compound 1 µM, first compound 3.16 µM): 11.1%; viability, T/C (second compound 1 µM, first compound 10 µM): 6.95%; viability, T/C [7]: 122%; viability, T/C [8]: 123%; viability, T/C (second compound 3.16 µM, first compound 0.316 µM): 71.3%; viability, T/C (second compound 3.16 µM, first compound 1 µM): 21.8%; viability, T/C (second compound 3.16 µM, first compound 3.16 µM): 11.5%; viability, T/C (second compound 3.16 µM, first compound 10 µM): 7.92%; viability, T/C [9]: 115%; viability, T/C [10]: 123%; viability, T/C (second compound 10 µM, first compound 0.316 µM): 71%; viability, T/C (second compound 10 µM, first compound 1 µM): 26.1%; viability, T/C (second compound 10 µM, first compound 3.16 µM): 16.7%; viability, T/C (second compound 10 µM, first compound 10 µM): 9.23%

`CC[C@@]1(O)C(=O)OCc2c1cc1n(c2=O)Cc2cc3c(CN(C)C)c(O)ccc3nc2-1` + NC1CCC(NC2CC2c2ccccc2)CC1 was tested. Which IC50 (second compound 0.1 µM) did it give?
Its IC50 is greater than 100 nM.

And the IC50 (second compound 0.316 µM)?
The IC50 was greater than 100 nM.

What about the IC50 (second compound 1 µM) of the same compound?
The IC50 was greater than 100 nM.

And the IC50 (second compound 3.16 µM)?
Its IC50 is greater than 100 nM.

And the IC50 (second compound 10 µM)?
Its IC50 is greater than 100 nM.

What about the viability, T/C (second compound 0.1 µM, first compound 0.000316 µM) of the same compound?
Its viability, T/C is 106%.

What about the viability, T/C (second compound 0.1 µM, first compound 0.001 µM) of the same compound?
The viability, T/C was 99.1%.

What about the viability, T/C (second compound 0.1 µM, first compound 0.00316 µM) of the same compound?
Its viability, T/C is 137%.

What about the viability, T/C (second compound 0.1 µM, first compound 0.01 µM) of the same compound?
Its viability, T/C is 131%.

What about the viability, T/C [1] of the same compound?
Its viability, T/C is 102%.

And the viability, T/C [2]?
Its viability, T/C is 51.8%.

And the viability, T/C (second compound 0.316 µM, first compound 0.000316 µM)?
Its viability, T/C is 111%.

What about the viability, T/C (second compound 0.316 µM, first compound 0.001 µM) of the same compound?
The viability, T/C was 108%.

And the viability, T/C (second compound 0.316 µM, first compound 0.00316 µM)?
The viability, T/C was 131%.

What about the viability, T/C (second compound 0.316 µM, first compound 0.01 µM) of the same compound?
Its viability, T/C is 132%.

And the viability, T/C [3]?
The viability, T/C was 98.6%.

And the viability, T/C [4]?
Its viability, T/C is 52.8%.

And the viability, T/C (second compound 1 µM, first compound 0.000316 µM)?
The viability, T/C was 107%.

And the viability, T/C (second compound 1 µM, first compound 0.001 µM)?
Its viability, T/C is 114%.

What about the viability, T/C (second compound 1 µM, first compound 0.00316 µM) of the same compound?
Its viability, T/C is 137%.

And the viability, T/C (second compound 1 µM, first compound 0.01 µM)?
The viability, T/C was 131%.

And the viability, T/C [5]?
The viability, T/C was 103%.

What about the viability, T/C [6] of the same compound?
Its viability, T/C is 56.9%.

And the viability, T/C (second compound 3.16 µM, first compound 0.000316 µM)?
The viability, T/C was 107%.

And the viability, T/C (second compound 3.16 µM, first compound 0.001 µM)?
Its viability, T/C is 124%.

What about the viability, T/C (second compound 3.16 µM, first compound 0.00316 µM) of the same compound?
Its viability, T/C is 147%.

What about the viability, T/C (second compound 3.16 µM, first compound 0.01 µM) of the same compound?
The viability, T/C was 134%.

What about the viability, T/C [7] of the same compound?
The viability, T/C was 104%.

What about the viability, T/C [8] of the same compound?
Its viability, T/C is 61.6%.

And the viability, T/C (second compound 10 µM, first compound 0.000316 µM)?
The viability, T/C was 104%.

What about the viability, T/C (second compound 10 µM, first compound 0.001 µM) of the same compound?
Its viability, T/C is 116%.

What about the viability, T/C (second compound 10 µM, first compound 0.00316 µM) of the same compound?
The viability, T/C was 140%.

What about the viability, T/C (second compound 10 µM, first compound 0.01 µM) of the same compound?
Its viability, T/C is 131%.

And the viability, T/C [9]?
Its viability, T/C is 110%.

What about the viability, T/C [10] of the same compound?
The viability, T/C was 63.2%.
